The results in this text go back to PubChem BioAssay AID1288 (Columbia University Molecular Screening Center, 2008).

Active and inactive are the calls of the source. No rule for the calls is given here.

Test [1] relates to human endothelial cells, TNFa-induced E-selectin, imaging. The test can be described thus: inhibitors of TNFa-induced E-selectin expression, confirmation, imaging, retest plus dose response, cell count (AID 1288).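 As to inhibition: 0% = stimulated vehicle wells and 100% = unstimulated vehicle wells.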
Experiment in test [2]: as above
The following applies: human endothelial cells, TNFa-induced E-selectin, imaging; for cell count: cell count toxicity, at 10 µM, stronger effect = lower value; for inhibition: at 2 µM, stronger effect = higher value.

The IC50 is the concentration at which inhibition is half-maximal. As for `O=S(=O)(C/C(=C/CO)S(=O)(=O)c1ccccc1)c1ccccc1`, the IC50 in test [1] is > 10 µM (inactive). For the same compound, the cell count in test [2] stood at 97.8%.

Regarding `CS(=O)(=O)c1ccc(S(=O)CC(=O)OCc2ccccc2)c([N+](=O)[O-])c1` (stereo not given), the IC50 in test [1] was > 10 µM (inactive). In test [2], the cell count amounted to 98.7%.

Turning to `CC(C)(C)C(=O)/C(=C\c1cccc([N+](=O)[O-])c1)n1cncn1`, in test [1], the IC50 is 3.04 µM. For the same compound, the cell count in test [2] is 23.9%.

As to `Cc1cc(C)cc(NC(=O)c2ccc([N+](=O)[O-])o2)c1`, in test [1], the IC50 was 2.11 µM. The cell count in test [2] came out at 98.3%.

For `O=C(OCn1ncc(Br)c(Br)c1=O)c1ccc(F)cc1`, in test [1], the IC50 is > 10 µM (inactive). For the same compound, the cell count in test [2] was determined as 53.9%.

Turning to `Cc1ccc(C(=O)OCn2ncc(Cl)c(Cl)c2=O)cc1`, the IC50 in test [1] is > 10 µM (inactive). In test [2], the cell count is 101%.

Turning to `C=CCSc1nc2ccccc2n1C(=O)/C=C/c1cc(OC)c(OC)c(OC)c1`, in test [1], the IC50 was 2.17 µM. Moreover, the cell count in test [2] amounted to 24.8%.

For the compound `CCOC(=O)CS(=O)(=O)c1nc(-c2ccc(F)cc2)cc(C(F)(F)F)n1`, the IC50 in test [1] is > 10 µM (inactive). Also, the cell count in test [2] came out at 98.3%.

Turning to `Cc1ccc2nc(-c3ccc(NC(=O)CCN4C(=O)c5ccccc5C4=O)cc3)sc2c1`, in test [1], the IC50 is > 10 µM (inactive). In test [2], the cell count was 107%.

As to `CCc1c(C)c(C#N)c2nc3ccccc3n2c1Cl`, in test [1], the IC50 was 1.98 µM. Moreover, the cell count in test [2] amounted to 70%.

As to `C#CC(=O)N(c1cc(OC)ccc1OC)C(C(=O)NC1CCCC1)c1cccs1` (stereo not given), in test [1], the IC50 is 9.61 µM. In addition, the cell count in test [2] amounted to 33.9%.

For `Cc1c(Nc2cc(Cl)c3nonc3c2[N+](=O)[O-])c(=O)n(-c2ccccc2)n1C`, the IC50 in test [1] was 6.67 µM. In test [2], the cell count was 66.3%.

`COc1cc(NC(=O)Cn2ncc(Cl)c(Cl)c2=O)c(C)cc1[N+](=O)[O-]`: in test [1], the IC50 is > 10 µM (inactive). Also, the cell count in test [2] was found to be 90.1%.

In the case of `COc1ccc(CS(=O)/C(Cl)=C(/Cl)C(=O)Nc2ccc(OC)nc2)cc1` (stereo not given), the half-maximal inhibitory concentration (IC50) in test [1] is 2.02 µM. Also, in test [2], the cell count was 10.3%.

In the case of `COc1ccc(-c2cc(C(=O)Nc3cnn(Cc4ccccc4C)c3)no2)cc1OC`, the concentration for half-maximal inhibition (IC50) in test [1] is 6.19 µM. Also, in test [2], the cell count came to 80.4%.

Consider `CN(C)c1nc(C=C(C#N)C#N)c(Cl)n1-c1ccc(F)cc1`, for which the IC50 in test [1] is 1.74 µM. Also, the cell count in test [2] is 46.6%.

Take `O=C(OCn1ncc(Cl)c(Cl)c1=O)c1cccc(C(F)(F)F)c1`: in test [1], the IC50 was > 10 µM (inactive). In test [2], the cell count stood at 102%.

For `O=C(Cn1ncc(Cl)c(Cl)c1=O)N1CCc2ccccc21`, the IC50 in test [1] is 2.48 µM. The cell count in test [2] was 40%.

Turning to `N#CC(C#N)=C1C=CC=CN1/C(=C\c1ccco1)C(=O)c1ccc(-c2ccccc2)cc1`, in test [1], the IC50 was 2.85 µM. The cell count in test [2] is 2.93%.

As for `N#Cc1ccc(-c2cccnc2)nc1SCc1ccc(Cl)c(Cl)c1`, the IC50 in test [1] was 2.75 µM. Moreover, the cell count in test [2] worked out at 2.48%.

For the compound `C=C1C(=O)C=C2CN(C(=O)c3ccccc3)[C@@](Cc3ccc(F)cc3)(C(=O)OC)[C@@H]12`, the IC50 in test [1] is > 10 µM (inactive). Also, the cell count in test [2] came out at 104%.

In the case of `CCN(CC)c1ccc2c(Cl)c(Br)c(=O)oc2c1`, in test [1], the IC50 is 2.16 µM. The cell count in test [2] stood at 11.5%.

The inhibition is the change of the read-out against control, counted positive when it falls. Regarding `CCN1CCN(Cc2cc(OC)c(OC)cc2[N+](=O)[O-])CC1`, the inhibition in test [2] is 12.6% (inactive).

Consider `O=C(Nc1cccs1)Nc1c(F)c(F)c(F)c(F)c1F`, for which, in test [2], the inhibition was 1.63% (inactive).

For `CCc1cccc(CC)c1NC(=O)COC(=O)c1cccc(-c2ccc(OC(C)=O)cc2)c1`, the inhibition in test [2] was 1.97% (inactive).

For `COc1ccc2[nH]c(C)c(CCN3C(=O)C4C5C=CC(C5)C4C3=O)c2c1` (stereo not given), the inhibition in test [2] is 9.54% (inactive).

As for `CCOc1ccc(NCc2nc3ccccc3n2CCOc2ccccc2)cc1`, the inhibition in test [2] is 11.6% (inactive).

In the case of `COc1ccccc1NC(=S)N(Cc1ccco1)Cc1cc2cccc(C)c2[nH]c1=O`, in test [2], the inhibition is 30.6% (inactive).

Take `Cc1cc(NC(=O)CSc2nnc(Cc3ccccc3)n2C)no1`: the inhibition in test [2] is 1.71% (inactive).

On to `CCc1ccc(CC2S/C(=C(\C#N)C(C)=O)NC2=O)cc1` (stereo not given), for which the inhibition in test [2] is 5.01% (inactive).

In the case of `COc1ccc2nc(NC(=O)CSC3=NCCS3)sc2c1`, the inhibition in test [2] is -0.86% (inactive).

In the case of `Cc1[nH]nc2c1C1(C(=O)N(Cc3ccc(Cl)cc3)c3ccccc31)C(C#N)=C(N)O2` (stereo not given), the inhibition in test [2] is 10.5% (inactive).

Consider `CN1CCCN(S(=O)(=O)c2cccc(Cl)c2Cl)CC1`, for which the inhibition in test [2] is -0.57% (inactive).

`O=C(N/N=C/c1ccc([N+](=O)[O-])s1)c1cccnc1`: the inhibition in test [2] is 44.3% (inactive).

In the case of `Cn1c(SCC(=O)N2CCOCC2)nnc1-c1cccc(NC(=O)c2ccccc2)c1`, the inhibition in test [2] is -2.57% (inactive).

Consider `O=C(Nc1nnc(C2CC2)s1)c1cc(-c2ccccc2)nn1-c1ccccc1`, for which, in test [2], the inhibition is 6.68% (inactive).

As to `O=C(N/N=C1/CCS(=O)(=O)c2ccc(F)cc21)c1ccccn1`, the inhibition in test [2] is 8.24% (inactive).

Consider `O=C(CCc1ccccc1)Nc1ncc2c(n1)CCCC2=O`, for which, in test [2], the inhibition is 14.5% (inactive).

For `COc1ccc2c(c1)c1ncn(CCCN3CCOCC3)c(=O)c1n2C`, in test [2], the inhibition was 1.07% (inactive).

With `CCCCOC(=O)CCn1c(=S)oc2ccccc21`, the inhibition in test [2] was 1.96% (inactive).

As to `COc1ccc(C2CC(O)(C(C)(C)O)NO2)cc1` (stereo not given), the inhibition in test [2] is -4.94% (inactive).

Take `Cc1cc(SCC(=O)c2cccs2)nc2ccccc12`: the inhibition in test [2] is 8.62% (inactive).

Turning to `CC(=O)Oc1cccc(N2C(=O)C3CC=C(Cl)CC3C2=O)c1` (stereo not given), in test [2], the inhibition was 31.6% (inactive).

As to `O=C(Nc1ccccc1)N(CCc1ccncc1)C1CCCCC1`, in test [2], the inhibition was 5.75% (inactive).

Turning to `Cc1nnc(SCC(=O)N2CC(=O)Nc3ccccc32)n1C`, in test [2], the inhibition was 41% (inactive).

Regarding `CCOC(=O)c1c(C)[nH]c(C(=O)OCCOc2ccccc2C)c1C`, the inhibition in test [2] is 0.85% (inactive).

As for `CCCCCCOC(=O)C1=C(C)NC(=O)NC1c1ccc(O)cc1` (stereo not given), the inhibition in test [2] was 13.9% (inactive).

As for `O=C1CC(N(Cc2cccs2)C(=O)Nc2ccccc2)C(=O)N1c1ccc(Cl)cc1` (stereo not given), the inhibition in test [2] was -1.04% (inactive).

As to `N=C(N)SCc1nc2ccccc2c(=O)n1-c1ccccc1`, in test [2], the inhibition is 9.67% (inactive).

Turning to `COc1ccc(C(=O)/C=C/c2ccc(F)cc2)c(OC(=O)c2ccc([N+](=O)[O-])cc2)c1`, in test [2], the inhibition is 5.11% (inactive).

For the compound `CSc1ccc(/C=N/NC(=O)CN2CCN(Cc3ccc(C)cc3)CC2)cc1`, the inhibition in test [2] was -1.62% (inactive).

`CCC(C(=O)OC)n1c(-c2ccccc2)nc2ccccc2c1=O` (stereo not given): in test [2], the inhibition is 10.1% (inactive).

As to `COc1ccc(OC)c(S(=O)(=O)N(C)CC(=O)Nc2ccc3c(c2)OCO3)c1`, in test [2], the inhibition was 5.06% (inactive).

In the case of `Cc1ccc(C(=O)c2c(NC(=O)c3ccccc3C)sc(C)c2C)cc1`, in test [2], the inhibition was 4.34% (inactive).

Regarding `CCC(C)Nc1nc(OC(C(F)(F)F)C(F)(F)F)nc(OC(C(F)(F)F)C(F)(F)F)n1` (stereo not given), in test [2], the inhibition was 9.28% (inactive).

Turning to `Cc1cc(C(=O)CN2C(=O)NC(c3ccccc3)(c3ccccc3)C2=O)c(C)n1Cc1ccco1`, the inhibition in test [2] is -3.9% (inactive).

Turning to `Cc1ccccc1OCCCC(=O)Nc1ccc(N2CCOCC2)cc1`, the inhibition in test [2] is 4.18% (inactive).

As for `CC(NC(=O)COc1cccc(Br)c1)C(=O)O` (stereo not given), the inhibition in test [2] was 24.6% (inactive).

Turning to `N/C(Cc1cccc2ccccc12)=N\OC(=O)c1ccc2c(c1)OCO2`, the inhibition in test [2] was 6.4% (inactive).

`CCOC(=O)c1cc(-c2ccccc2)sc1NC(=S)Nc1cccc(C)n1`: the inhibition in test [2] is -0.25% (inactive).

On to `COCc1cc(C)nc(OCC(=O)N/N=C/c2ccc(-c3cc([N+](=O)[O-])ccc3C)o2)c1C#N`, for which, in test [2], the inhibition was 19% (inactive).

For `Cc1c(Cl)cnc(NC(=O)COC(=O)c2nn(C)c(=O)c3ccccc23)c1Cl`, the inhibition in test [2] is 12.5% (inactive).

In the case of `C=CCN1C(c2ccccc2)=CS/C1=C(\C#N)c1nnc2n1CCCCC2`, the inhibition in test [2] is 34% (inactive).

For `CCCCCOC(=O)Cn1c(SCC(=O)Nc2ccccc2)nc2c1c(=O)[nH]c(=O)n2C`, in test [2], the inhibition was -1.58% (inactive).

Take `O=C1N(c2ccccc2)C2CS(=O)(=O)CC2N1c1ccc(Br)cc1` (stereo not given): the inhibition in test [2] was 10.8% (inactive).

For `Cc1ccc(Cc2cnc(NC(=O)/C(C#N)=C/c3ccc(-c4ccccc4[N+](=O)[O-])o3)s2)cc1`, in test [2], the inhibition is 5.26% (inactive).

`COc1ccc(C2N=C(N)N=C(N)N2c2ccccc2)cc1OC` (stereo not given): the inhibition in test [2] is 23% (inactive).

On to `COc1ccccc1C(=O)NCCN1CCN(C(=O)c2ccccc2OC)CC1`, for which, in test [2], the inhibition is 9.74% (inactive).

On to `CN=C(C)C1=C(O)C(C(=O)OC)C(C)(C)CC1=O` (stereo not given), for which, in test [2], the inhibition was -0.09% (inactive).

For the compound `CC1CC1c1ccc(/C=C(\C#N)C(=O)Nc2ccc(Cl)cc2)o1` (stereo not given), the inhibition in test [2] is 7.94% (inactive).

Turning to `O=C(O)C(=O)/C(=C\c1ccccc1)c1ccc2ccccc2n1`, the inhibition in test [2] was 23.7% (inactive).

For the compound `CCN(CC)S(=O)(=O)c1ccc2[nH]c(=O)cc(C(=O)Nc3cccc(C(C)=O)c3)c2c1`, the inhibition in test [2] was 8.83% (inactive).

Regarding `O=C(Nc1ccc(Cl)cc1)Nc1nnc(CSc2ccc(Cl)cc2)s1`, the inhibition in test [2] was 6.9% (inactive).

As to `Cc1ccc(C2(O)CN(c3ccccc3C)C3=[N+]2CCS3)cc1` (stereo not given), the inhibition in test [2] was 2.57% (inactive).

As for `O=c1c2cccnc2[nH]c(=S)n1CCCN1CCN(c2ccc(F)cc2)CC1`, the inhibition in test [2] is 1.58% (inactive).

With `CCC(=O)Nc1cccc(NC(=O)CSc2nnc(-c3ccc(NS(C)(=O)=O)cc3)n2C)c1`, the inhibition in test [2] was -2.9% (inactive).

As to `COCCCNCCCCOc1ccc(OCc2ccccc2)cc1`, the inhibition in test [2] is -0.12% (inactive).

Regarding `COc1ccc(-n2nnnc2SCc2nc(N)nc(N3CCOCC3)n2)cc1`, the inhibition in test [2] is 33.7% (inactive).
